Results taken from ChEMBL document CHEMBL3727350, “Agents and methods for treating ischemic and other diseases” (2014).
The source made the active and inactive calls. The rule behind the calls is not given here.

Key:
Y79 [1] = experiment: Inhibition of cell proliferation of human Y79 cells at 1 uM to 7.5 uM by MTT assay; format: functional, cell-based
WERI [2] = experiment: Inhibition of cell proliferation of human WERI cells at 0.25 uM to 10 uM by MTT assay; format: functional, cell-based
Y79 [3] = experiment: Reduction in cell viability in human Y79 cells on rat retinal explants at 5 uM; format: functional, cell-based
Y79 [4] = experiment: Inhibition of cell migration of human Y79 cells assessed as reduction in cell ability to migrate away from retina in cultured explants at 5 uM; format: functional, cell-based
WERI [5] = experiment: Inhibition of cell migration of human WERI cells assessed as reduction in cell ability to migrate away from retina in cultured explants at 1 uM; format: functional, cell-based
HeLa [6] = experiment: Inhibition of cell proliferation of human HeLa cells at 1.25 to 10 uM incubated for 48 hrs by BrdU incorporation assay; format: functional, cell-based
SW13 [7] = experiment: Inhibition of cell proliferation of human SW13 cells at 1.25 to 10 uM incubated for 48 hrs by BrdU incorporation assay; format: functional, cell-based
SW13 [8] = experiment: Inhibition of cell proliferation of human SW13 cells at 1.25 to 10 uM incubated for 72 hrs by SRB assay; format: functional, cell-based
MDA-MB-231 [9] = experiment: Inhibition of cell proliferation of human MDA-MB-231 cells at 1.25 to 10 uM incubated for 72 hrs by SRB assay; format: functional, cell-based
B16-F1 = experiment: Inhibition of cell proliferation of mouse B16-F1 cells at 1.25 to 10 uM incubated for 72 hrs by SRB assay; format: functional, cell-based
B16-F10 [10] = experiment: Inhibition of cell proliferation of mouse B16F10 cells at 1.25 to 10 uM incubated for 72 hrs by SRB assay; format: functional, cell-based
[11] = Inhibition of cell proliferation of mouse NIH/3T3 cells at 1.25 to 10 uM incubated for 72 hrs by propidium iodide staining assay; format: cell-based; conditions: nih3t3, 72 h
[12] = molecular target: Transient receptor potential cation channel subfamily M member 7 (Mus musculus) (UniProt Q923J1); experiment: Inhibition of Tet-induced Flag-tagged mouse TRPM7 expressed in HEK293 cells assessed as inhibition of channel-mediated cell death in presence of Mg2+ incubated for 24 to 48 hrs by propidium iodide uptake assay; format: cell-based; design: concentration or dose not given beside the values
[13] = molecular target: Transient receptor potential cation channel subfamily M member 7 (Mus musculus) (UniProt Q923J1); experiment: Inhibition of Tet-induced Flag-tagged mouse TRPM7 expressed in HEK293 cells assessed as reduction in channel currents at 0.3 to 30 uM by whole cell patch clamp assay; format: cell-based
[14] = molecular target: Transient receptor potential cation channel subfamily M member 7 (Rattus norvegicus) (UniProt Q925B3); experiment: Inhibition of TRPM7 in rat H9C2 cells assessed as reduction in channel currents at 0.3 to 30 uM by whole cell patch clamp assay; format: cell-based
[15] = molecular target: Transient receptor potential cation channel subfamily M member 7 (Mus musculus) (UniProt Q923J1); experiment: Inhibition of Tet-induced Flag-tagged mouse TRPM7 expressed in HEK293 cells assessed as reduction in channel currents at 2 mM using compound applied intracellularly by whole cell patch clamp assay; format: cell-based
[16] = molecular target: Transient receptor potential cation channel subfamily M member 7 (Mus musculus) (UniProt Q923J1); experiment: Inhibition of Tet-induced Flag-tagged mouse TRPM7 expressed in HEK293 cells assessed as reduction in channel currents at 2 mM using compound applied extracellularly by whole cell patch clamp assay; format: cell-based
[17] = molecular target: Transient receptor potential cation channel subfamily M member 7 (Mus musculus) (UniProt Q923J1); experiment: Inhibition of TRPM7 in mouse primary neuronal cells exposed to oxygen glucose deprivation condition for 1 to 3 hrs assessed as reduction in TRPM7-mediated anoxic cell death dosed before oxygen glucose deprivation condition by propidium iodide uptake assay; conditions: Primary neuron
[18] = molecular target: Transient receptor potential cation channel subfamily M member 7 (Mus musculus) (UniProt Q923J1); experiment: Inhibition of TRPM7 in mouse primary neuronal cells exposed to oxygen glucose deprivation condition for 1 to 3 hrs assessed as reduction in TRPM7-mediated anoxic cell death dosed after oxygen glucose deprivation condition by propidium iodide uptake assay; conditions: Primary neuron
[19] = molecular target: Transient receptor potential cation channel subfamily M member 7 (Rattus norvegicus) (UniProt Q925B3); experiment: Inhibition of TRPM7 in rat H9C2 cells exposed to oxygen glucose deprivation condition for 1 to 6 hrs assessed as reduction in TRPM7-mediated anoxic cell death in presence of 1 uM nifedipine by propidium iodide uptake assay; format: cell-based
[20] = Cytotoxic activity against mouse primary cortical neurons assessed as reduction in cell viability at 1 to 7.5 uM incubated for 48 to 72 hrs by MTT assay; format: cell-based; conditions: cerebral cortex neuron
Y79 [21] = experiment: Inhibition of cell proliferation of human Y79 cells at 10 uM incubated for 48 to 96 hrs; format: functional
MCF7 = experiment: Inhibition of cell proliferation of human MCF7 cells at 10 uM incubated for 48 to 96 hrs; format: functional
MDA-MB-231 [22] = experiment: Inhibition of cell proliferation of human MDA-MB-231 cells at 10 uM incubated for 48 to 96 hrs; format: functional
[23] = Inhibition of cell proliferation of mouse B16-F1 cells at 10 uM incubated for 48 to 96 hrs; format: functional
SW13 [24] = experiment: Inhibition of cell proliferation of human SW13 cells at 10 uM incubated for 48 to 96 hrs; format: functional
HeLa [25] = experiment: Inhibition of cell proliferation of human HeLa cells at 10 uM incubated for 48 to 96 hrs; format: functional
U2OS = experiment: Inhibition of cell proliferation of human U2OS cells at 10 uM incubated for 48 to 96 hrs; format: functional
[26] = Inhibition of cell proliferation of human DMS53 cells at 10 uM incubated for 48 to 96 hrs; format: functional; conditions: DMS-53
[27] = Inhibition of cell proliferation of human DMS456 cells at 10 uM incubated for 48 to 96 hrs; format: functional
NCI-H292 = experiment: Inhibition of cell proliferation of human NCI-H292 cells at 10 uM incubated for 48 to 96 hrs; format: functional
[28] = Inhibition of cell proliferation of human HCT116 cells at 10 uM incubated for 48 to 96 hrs; format: functional; conditions: HCT-116
A-375 = experiment: Inhibition of cell proliferation of human A375 cells at 10 uM incubated for 48 to 96 hrs; format: functional
[29] = Inhibition of cell proliferation of human […] cells at 10 uM incubated for 48 to 96 hrs; format: functional; conditions: RXF 393
[30] = Inhibition of cell proliferation of human WERI cells at 10 uM incubated for 48 to 96 hrs; format: functional
[31] = Inhibition of cell proliferation of mouse B16F10 cells at 10 uM incubated for 48 to 96 hrs; format: functional; conditions: B16-F10
[32] = Toxicity in mouse assessed as maximum tolerated dose; format: organism-based; conditions: in vivo
B16-F10 [33] = experiment: Antitumor activity against mouse B16F10 cells implanted in mouse assessed as inhibition of tumor growth at 20 mg/kg, iv qd; format: functional, organism-based
RXF 393 = experiment: Antitumor activity against human RXF393 cells implanted in mouse assessed as inhibition of tumor growth at 20 mg/kg, iv qd; format: functional, organism-based
[34] = molecular target: Transient receptor potential cation channel subfamily M member 7 (Mus musculus) (UniProt Q923J1); experiment: Inhibition of TRPM7 in mouse mouse primary cortical neurons exposed to 2 hrs oxygen glucose deprivation condition assessed as reduction in TRPM7-mediated anoxic cell death measured after 20 hrs by propidium iodide uptake assay; format: cell-based; conditions: Cerebral cortex neuron
[35] = molecular target: Transient receptor potential cation channel subfamily M member 7 (Mus musculus) (UniProt Q923J1); experiment: Inhibition of TRPM7 in mouse mouse primary cortical neurons exposed to 2 hrs oxygen glucose deprivation condition assessed as reduction in TRPM7-mediated anoxic cell death at 0.625 to 5 uM pre-incubated for 24 hrs before OGD measured after 20 hrs by propidium iodide uptake assay; format: cell-based; conditions: Cerebral cortex neuron

Chain of Transient receptor potential cation channel subfamily M member 7 (Mus musculus) (Q923J1 whole entry): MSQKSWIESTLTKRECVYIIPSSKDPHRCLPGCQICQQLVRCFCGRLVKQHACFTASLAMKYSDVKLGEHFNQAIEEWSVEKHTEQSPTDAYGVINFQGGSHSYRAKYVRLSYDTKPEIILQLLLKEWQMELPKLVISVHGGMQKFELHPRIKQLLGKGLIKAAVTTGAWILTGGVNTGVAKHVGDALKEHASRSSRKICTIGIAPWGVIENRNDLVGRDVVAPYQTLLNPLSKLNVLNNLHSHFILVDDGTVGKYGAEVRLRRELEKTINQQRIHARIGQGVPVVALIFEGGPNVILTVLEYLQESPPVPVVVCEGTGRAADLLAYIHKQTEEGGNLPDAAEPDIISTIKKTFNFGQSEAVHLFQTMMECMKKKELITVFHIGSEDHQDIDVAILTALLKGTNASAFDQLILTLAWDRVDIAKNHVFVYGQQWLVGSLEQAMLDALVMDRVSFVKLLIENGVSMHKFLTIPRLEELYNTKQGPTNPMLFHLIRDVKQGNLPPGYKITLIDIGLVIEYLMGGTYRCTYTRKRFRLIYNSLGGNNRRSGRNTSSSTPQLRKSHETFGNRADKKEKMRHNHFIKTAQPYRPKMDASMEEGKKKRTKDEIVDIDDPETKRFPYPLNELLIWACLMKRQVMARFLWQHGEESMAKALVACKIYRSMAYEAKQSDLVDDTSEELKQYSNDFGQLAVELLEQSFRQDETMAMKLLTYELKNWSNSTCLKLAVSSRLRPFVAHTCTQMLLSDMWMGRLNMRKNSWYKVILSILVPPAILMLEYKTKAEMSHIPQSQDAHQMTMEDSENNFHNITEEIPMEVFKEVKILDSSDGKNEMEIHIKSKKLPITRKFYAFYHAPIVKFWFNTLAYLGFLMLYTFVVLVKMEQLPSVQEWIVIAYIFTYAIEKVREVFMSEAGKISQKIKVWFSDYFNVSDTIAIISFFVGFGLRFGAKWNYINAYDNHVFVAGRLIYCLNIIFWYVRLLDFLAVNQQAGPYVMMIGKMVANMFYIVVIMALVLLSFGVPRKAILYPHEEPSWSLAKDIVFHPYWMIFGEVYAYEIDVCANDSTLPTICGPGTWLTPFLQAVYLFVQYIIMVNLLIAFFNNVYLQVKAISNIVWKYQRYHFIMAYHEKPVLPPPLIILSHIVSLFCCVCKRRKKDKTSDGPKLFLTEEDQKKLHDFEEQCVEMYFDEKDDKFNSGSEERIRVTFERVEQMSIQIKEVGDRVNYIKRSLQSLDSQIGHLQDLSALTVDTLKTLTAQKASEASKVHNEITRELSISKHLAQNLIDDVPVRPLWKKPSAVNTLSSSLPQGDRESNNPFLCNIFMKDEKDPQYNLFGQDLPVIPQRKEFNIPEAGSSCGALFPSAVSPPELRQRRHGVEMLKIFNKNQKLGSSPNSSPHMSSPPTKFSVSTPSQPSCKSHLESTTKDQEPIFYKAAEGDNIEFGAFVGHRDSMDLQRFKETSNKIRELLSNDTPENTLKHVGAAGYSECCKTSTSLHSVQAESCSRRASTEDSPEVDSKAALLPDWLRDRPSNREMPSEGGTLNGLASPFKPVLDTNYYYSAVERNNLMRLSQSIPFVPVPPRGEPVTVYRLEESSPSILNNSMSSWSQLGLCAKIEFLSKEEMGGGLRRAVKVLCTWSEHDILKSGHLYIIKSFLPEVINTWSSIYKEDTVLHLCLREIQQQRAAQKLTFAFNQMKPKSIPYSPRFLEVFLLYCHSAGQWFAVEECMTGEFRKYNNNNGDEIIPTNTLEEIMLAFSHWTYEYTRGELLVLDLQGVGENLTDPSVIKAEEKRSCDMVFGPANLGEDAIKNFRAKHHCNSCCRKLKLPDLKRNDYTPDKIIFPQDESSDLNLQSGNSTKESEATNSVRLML
Chain of Transient receptor potential cation channel subfamily M member 7 (Rattus norvegicus) (Q925B3 whole entry): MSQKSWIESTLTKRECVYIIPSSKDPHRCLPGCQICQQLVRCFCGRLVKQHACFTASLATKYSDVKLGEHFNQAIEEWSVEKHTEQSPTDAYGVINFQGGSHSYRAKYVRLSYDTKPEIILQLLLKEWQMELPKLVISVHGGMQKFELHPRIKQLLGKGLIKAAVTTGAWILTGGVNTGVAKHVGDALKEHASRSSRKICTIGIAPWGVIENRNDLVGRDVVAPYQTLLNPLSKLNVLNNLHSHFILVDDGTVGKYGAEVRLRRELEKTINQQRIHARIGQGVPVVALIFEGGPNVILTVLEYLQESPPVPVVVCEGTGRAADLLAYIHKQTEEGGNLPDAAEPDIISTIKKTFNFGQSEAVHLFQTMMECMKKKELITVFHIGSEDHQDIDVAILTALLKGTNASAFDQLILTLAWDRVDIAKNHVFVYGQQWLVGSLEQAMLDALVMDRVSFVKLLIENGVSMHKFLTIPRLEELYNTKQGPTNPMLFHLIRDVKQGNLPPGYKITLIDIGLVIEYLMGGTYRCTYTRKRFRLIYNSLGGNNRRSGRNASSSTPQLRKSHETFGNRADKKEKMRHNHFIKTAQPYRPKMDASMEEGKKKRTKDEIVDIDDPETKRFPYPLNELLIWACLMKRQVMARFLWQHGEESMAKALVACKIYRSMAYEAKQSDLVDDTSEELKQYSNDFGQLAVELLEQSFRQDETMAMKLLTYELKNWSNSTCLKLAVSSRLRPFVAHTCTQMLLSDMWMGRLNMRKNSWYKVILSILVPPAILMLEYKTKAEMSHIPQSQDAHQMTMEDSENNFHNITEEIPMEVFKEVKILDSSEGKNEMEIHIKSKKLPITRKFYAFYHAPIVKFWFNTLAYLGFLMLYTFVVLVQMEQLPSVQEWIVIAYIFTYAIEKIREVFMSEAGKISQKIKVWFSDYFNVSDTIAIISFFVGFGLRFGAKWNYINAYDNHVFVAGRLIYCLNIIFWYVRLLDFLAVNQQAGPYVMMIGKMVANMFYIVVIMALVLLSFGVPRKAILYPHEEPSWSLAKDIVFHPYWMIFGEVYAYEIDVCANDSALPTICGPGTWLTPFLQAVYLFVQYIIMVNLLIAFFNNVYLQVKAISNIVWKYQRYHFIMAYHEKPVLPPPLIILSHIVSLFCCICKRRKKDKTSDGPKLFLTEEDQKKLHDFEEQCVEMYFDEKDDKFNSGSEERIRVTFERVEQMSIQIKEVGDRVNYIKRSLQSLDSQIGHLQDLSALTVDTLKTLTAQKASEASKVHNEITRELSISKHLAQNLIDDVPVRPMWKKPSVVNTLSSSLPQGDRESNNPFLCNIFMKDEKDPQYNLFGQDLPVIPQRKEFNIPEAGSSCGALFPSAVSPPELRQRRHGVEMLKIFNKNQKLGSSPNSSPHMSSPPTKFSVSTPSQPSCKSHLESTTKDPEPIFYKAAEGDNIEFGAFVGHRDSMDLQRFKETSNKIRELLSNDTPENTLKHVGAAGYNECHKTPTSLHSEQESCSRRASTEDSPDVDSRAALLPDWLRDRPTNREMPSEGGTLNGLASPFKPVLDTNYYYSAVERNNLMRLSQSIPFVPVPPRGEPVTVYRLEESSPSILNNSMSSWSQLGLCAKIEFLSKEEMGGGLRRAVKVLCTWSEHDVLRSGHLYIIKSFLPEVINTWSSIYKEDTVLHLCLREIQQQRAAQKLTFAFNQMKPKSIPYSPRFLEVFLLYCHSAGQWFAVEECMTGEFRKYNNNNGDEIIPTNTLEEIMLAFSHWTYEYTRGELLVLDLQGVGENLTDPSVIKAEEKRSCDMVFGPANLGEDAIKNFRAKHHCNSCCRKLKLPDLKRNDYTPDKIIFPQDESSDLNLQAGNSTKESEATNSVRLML

With COc1cc2c(cc1OC)C(c1sc3ccccc3c1Cl)=NCC2 the inhibition (Y79 [1]) was “Active”, the inhibition (WERI [2]) was “Active” and the inhibition (Y79 [3]) was “Active”. For the same molecule, the inhibition (Y79 [4]) was “Active”, the inhibition (WERI [5]) was “Active” and the inhibition (HeLa [6]) was “Active”. The inhibition (SW13 [7]) was “Active”, the inhibition (SW13 [8]) was “Active” and the inhibition (MDA-MB-231 [9]) was “Active”. The inhibition (B16-F1) was “Active”, the inhibition (B16-F10 [10]) was “Active” and the Activity [11] was “Non-toxic”. For the same molecule, the inhibition [12] was “Active”, the inhibition [13] was “Active” and the inhibition [14] was “Active”. For the same molecule, the inhibition [15] was “inactive”, the inhibition [16] was “Active” and the inhibition [17] was “Active”. For the same molecule, the inhibition [18] was “Active”, the inhibition [19] was “Active” and the Activity [20] was “Non-toxic”. The inhibition at 10 µM (Y79 [21]) was over 20%, the inhibition at 10 µM (MCF7) was over 20% and the inhibition at 10 µM (MDA-MB-231 [22]) was over 20%. The inhibition at 10 µM [23] was over 20%, the inhibition at 10 µM (SW13 [24]) was over 20% and the inhibition at 10 µM (HeLa [25]) was over 20%. The inhibition at 10 µM (U2OS) was over 20%, the inhibition at 10 µM [26] was over 20% and the inhibition at 10 µM [27] was over 20%. The inhibition at 10 µM (NCI-H292) was over 20%, the inhibition at 10 µM [28] was over 20% and the inhibition at 10 µM (A-375) was over 20%. It also gave an inhibition at 10 µM [29] of over 20%, an inhibition at 10 µM [30] of over 20% and an inhibition at 10 µM [31] of over 20%. For the same molecule, the MTD [32] was under 20 mg/kg, the TGI (B16-F10 [33]) was “Active” and the TGI (RXF 393) was “Active”. For the same molecule, the inhibition [34] was “Active” and the inhibition [35] was “Active”.
